How the values were obtained:
[1] = system: PA-Lymphoblastoid Cell Line; test: PA-Lymphoblastoid Cell Line: effect of oxygen deprivation in the presence of 3 sensitizers (cell counts); type: cell-based; settings: for cell count, Time (hour) 0: time 0 h; for cell count, Time (hour) 0 / cell count, Time (hour) 4 / cell count, Time (hour) 20: solutions and cells bubbled with nitrogen for 15 minutes (oxygen deprivation); for cell count, Time (hour) 4: time 4 h; for cell count, Time (hour) 20: time 20 h
Method: PA-Lymphoblastoid Cell Line: Study of the effect of oxygen deprivation in the presence of 3 sensitizers Six solutions were prepared having the solutions and the cells from each of the 6 sets were “bubbled” with nitrogen separately for 15 minutes before being mixed.

LCLs = test: Cell synchronization with aphidicolin, flow cytometric cell cycle analysis of propidium iodide stained cells; type: cell-based, human
Description: Using a method described by Matherly^1 cell synchronization may be achieved with the drug aphidicolin, a DNA polymerase inhibitor. This drug prevents the cells from entering S-phase, the phase during which the cells replicate their DNA. Therefore, the cells accumulate at G1 phase, immediately prior to the start of S phase. These effects of aphidicolin are reversible; the cells return to normal cell-cycling soon after the drug is removed from the culture by washing. Thus, because all of the cells were synchronized together in G1, after removal of aphidicolin, they will proceed through S-phase together. Using flow cytometric analyis of propidium-iodine stained cells, as described by Krishan^2, we were able to determine the stage of cell cycle of the cultures:
Consequently, we hypothesize that treatment with aphidicolin will increase the effectiveness of specific killing via RBO-DNA photochemistry.

[2] = system: EBV infected human lymphoblastoid cells (LCLs); settings: 10 mM glutathione

Row | SMILES | cell count, Time (hour) 0 [1] [million cells/mL] | cell count, Time (hour) 4 [1] [million cells/mL] | cell count, Time (hour) 20 [1] [million cells/mL] | proportion of cells in S-phase (LCLs; after aphidicolin treatment and removal) | time of peak proportion of cells in S-phase after removal of aphidicolin (LCLs; after removal of aphidicolin from solution) [h] | cell growth [2] | hypoxic toxicity ([1]; oxygen deprivation, conclusion from cell counts)
1 | Cc1cc2nc3c(=O)[nH]c(=O)nc-3n(C[C@H](O)[C@H](O)[C@H](O)CO)c2cc1C [Riboflavin (RB), Riboflavin] | 1 | 0.9 | 0.63 | – | – | – | –
2 | C[C@@]1(CO)[C@H](O)CC[C@@]2(C)[C@H]1CC[C@H]1C[C@@H]3C[C@@]12CC[C@]3(O)CO [aphidicolin] | – | – | – | significantly increases | 6 | – | –
3 | N[C@@H](CCC(=O)N[C@@H](CS)C(=O)NCC(=O)O)C(=O)O [glutathione] | – | – | – | – | – | grow normally | –
4 | Cc1cc2c(cc1C)[n+]([O-])c1c(=O)[nH]c(=O)nc-1n2CC(O)C(O)C(O)CO (stereo not shown) [RBO, riboflavin N-oxide] | 0.45 | 0.46 | 0.06 | – | – | – | high hypoxic toxicity
5 | Nc1n[n+]([O-])c2ccccc2[n+]1[O-] [Tirapazamine (TPZ), Tirapazamine] | 0.4 | 0.4 | 0.36 | – | – | – | –

— patent publication US7235392B2, “Apoptotic EBV-transformed lymphocytes, a therapeutic agent for post-transplant lymphoproliferative disorder” (The Ohio State University Research Foundation, priority 2001, dated 2007)
